Laboratory results as given in PMC5064002, “Sintokamide A Is a Novel Antagonist of Androgen Receptor That Uniquely Binds Activation Function-1 in Its Amino-terminal Domain” (The Journal of Biological Chemistry, 2016).

Legend:
LNCaP cells [1] = assay: Cell proliferation (BrdU incorporation), LNCaP; format: cell-based; conditions: 0.1 nM R1881, 72 h
Description: (§1) Cells were pulse-labeled with 10 μM BrdU for 2 h. Cells were fixed, and BrdU-labeled cells were identified with anti-BrdU-peroxidase (Roche Applied Science). BrdU incorporation was measured at 570 nm using a VersaMax ELISA microplate reader (Molecular Devices). At least three independent experiments with six technical replicates were analyzed, and average values are indicated.

AR NTD = molecular target: T1, AR NTD (Homo sapiens, UniProt P10275); assay: Transactivation of AR NTD (AR-(1–558)-Gal4 DBD, 5xGal4UAS-TATA-luciferase) in LNCaP cells; format: cell-based; conditions: for IL-6-induced transactivation of AR NTD: 20 μM SINT1 or 25 μM EPI-002, 50 ng/ml IL-6 24 h; for forskolin-induced transactivation of AR NTD: 20 μM SINT1 or 25 μM EPI-002, 50 μM forskolin 24 h
T1 construct: expression vector for AR NTD encoding amino acids 1–558 fused to the Gal4 DBD; expressed in transfected cells; host or cells: LNCaP
T1 sequence (P10275 1-558): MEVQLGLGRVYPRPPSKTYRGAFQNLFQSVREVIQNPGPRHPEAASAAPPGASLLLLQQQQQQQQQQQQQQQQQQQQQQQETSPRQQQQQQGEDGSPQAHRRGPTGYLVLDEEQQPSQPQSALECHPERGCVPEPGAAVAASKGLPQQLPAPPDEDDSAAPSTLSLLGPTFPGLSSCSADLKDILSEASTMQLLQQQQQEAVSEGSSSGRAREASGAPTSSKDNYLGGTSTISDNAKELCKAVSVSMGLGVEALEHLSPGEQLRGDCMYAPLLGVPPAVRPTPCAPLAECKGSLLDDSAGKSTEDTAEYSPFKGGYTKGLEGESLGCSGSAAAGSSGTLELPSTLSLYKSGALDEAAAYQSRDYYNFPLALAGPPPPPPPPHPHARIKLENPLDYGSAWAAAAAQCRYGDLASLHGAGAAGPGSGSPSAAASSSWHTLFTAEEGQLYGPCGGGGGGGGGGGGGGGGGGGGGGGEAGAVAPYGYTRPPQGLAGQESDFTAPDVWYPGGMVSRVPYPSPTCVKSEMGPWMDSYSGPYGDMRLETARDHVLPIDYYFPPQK
Description: LNCaP cells were co-transfected with 5xGal4UAS-TATA-luciferase and AR-(1–558)-Gal4 DBD prior to pretreatment with 20 μM SINT1 or 25 μM EPI-002, which binds to the AR NTD to block AR transcriptional activity. NTD activity was induced by incubation with 50 μM forskolin or 50 ng/ml IL-6 for an additional 24 h ([7], [8]).
To test whether SINT1 can inhibit transactivation of AR NTD, LNCaP cells were co-transfected with an expression vector for AR NTD encoding amino acids 1–558 fused to the Gal4 DBD and a reporter construct with Gal4 DBD-binding sites. Transactivation of AR NTD is induced by forskolin or IL-6 ([8], [14]).

LNCaP95 cells = assay: Cell proliferation (BrdU incorporation), LNCaP95; format: cell-based; conditions: 48 h
Description: as §1

[2] = test system: FL-AR- and AR-V7-regulated genes; assay: AR-FL- and AR-V7-regulated gene expression (quantitative RT-PCR) in LNCaP95 cells; format: cell-based
Description: At 48 h, total RNA was isolated using a PureLink RNA Mini kit (Invitrogen). For in vivo expression, tumors were harvested 3 days after last treatment, and RNA was extracted using TRIzol. Prior to cDNA generation, 4 μg of RNA were DNase-treated using DNase I (amplification grade; Sigma-Aldrich). DNase-treated RNA was split into two tubes (+RT and −RT), and cDNA was generated using the High Capacity RNA-cDNA kit (Applied Biosystems). Once complete, both reactions were adjusted to 5 ng/μl and stored at −20 °C. Approximately 5 ng of diluted cDNA and gene-specific primers were mixed with Platinum SYBR Green qPCR SuperMix-UDG with ROX (Invitrogen). The transcripts were measured using an ABI PRISM 7900 Sequence Detection System (Invitrogen). For all quantitative RT-PCR experiments, each sample was tested in triplicate, and gene expression levels were normalized to the reference gene RPL13A. Neuron-specific enolase (ENO2) (Gene ID, 2026; pair 1) and synaptophysin (SYP) (Gene ID, 6855; pair 2) human primers were from Sigma Life Science. All other primers were described previously ([4], [9]) and purchased from Integrated DNA Technologies.

LNCaP cells [3] = test system: LNCaP cells; design: method as in PMID 18834139; conditions: cited from earlier work
[4] = LNCaP95, 10 μM SINT1, 1 nM R1881 48 h

## CC(C)(c1ccc(OC[C@H](O)CO)cc1)c1ccc(OC[C@H](O)CCl)cc1 [EPI-002, reference compound]
LNCaP cells [1]
  androgen-induced proliferation of LNCaP cells: inhibited
AR NTD
  IL-6-induced transactivation of AR NTD: potent inhibitor
  forskolin-induced transactivation of AR NTD: significantly inhibited
LNCaP95 cells
  proliferation of LNCaP95 cells: inhibited

## CCC(=O)NC(CC(C)C(Cl)(Cl)Cl)C(=O)N1C(=O)C=C(OC)C1CC(C)C(Cl)Cl (centres unmarked) [SINT1, Sintokamide A]
LNCaP cells [1]
  androgen-induced proliferation of LNCaP cells: inhibited
AR NTD
  IL-6-induced transactivation of AR NTD: no significant effect
  forskolin-induced transactivation of AR NTD: significantly inhibited
[2]; [4]
  androgen-induced transcript of FL-AR-regulated gene RHOU: exception
  androgen-induced transcripts of FL-AR-regulated genes KLK3/PSA, KLK2, TMPRSS2, NKX3.1, FKBP5 and SLC1A1: significantly repressed
[2]; LNCaP95, 10 μM SINT1, 48 h
  levels of AR-V7 target gene transcripts cyclin A2, CDC20, UBE2C and CDK1: significantly repressed
  levels of AR-V7 transcript: no significant effect
[2]; LNCaP95, 10 μM SINT1, 48 h, compared with vehicle control
  levels of FL-AR mRNA: did not lead to an increase
LNCaP95 cells
  proliferation of LNCaP95 cells: inhibited
LNCaP cells [3]
  androgen-dependent growth of LNCaP cells: block
